Structures can show the parent of a compound that is named as a salt.
Target: HSET full length protein (Homo sapiens (Human), UniProt Q9BW19)
Experiment: HSET ADP-Glo Assay S - 3 μM ATP
Format: biochemical
Conditions: 5 nM HSET, 70 μg/mL microtubule, 80 min at rt, read-out: COMBINED HSET ADP GLO IC50
How it was run: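 Full-length human HSET (5 nM) with paclitaxel-stabilised bovine brain microtubules (70 μg/mL) in HEPES pH 6.8 buffer was preincubated 10 min with compound. ATP at 3 μM started the reaction, which ran 80 min at rt. ADP formed was measured by ADP-Glo luminescence.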

Chain of HSET full length protein (Q9BW19 whole entry): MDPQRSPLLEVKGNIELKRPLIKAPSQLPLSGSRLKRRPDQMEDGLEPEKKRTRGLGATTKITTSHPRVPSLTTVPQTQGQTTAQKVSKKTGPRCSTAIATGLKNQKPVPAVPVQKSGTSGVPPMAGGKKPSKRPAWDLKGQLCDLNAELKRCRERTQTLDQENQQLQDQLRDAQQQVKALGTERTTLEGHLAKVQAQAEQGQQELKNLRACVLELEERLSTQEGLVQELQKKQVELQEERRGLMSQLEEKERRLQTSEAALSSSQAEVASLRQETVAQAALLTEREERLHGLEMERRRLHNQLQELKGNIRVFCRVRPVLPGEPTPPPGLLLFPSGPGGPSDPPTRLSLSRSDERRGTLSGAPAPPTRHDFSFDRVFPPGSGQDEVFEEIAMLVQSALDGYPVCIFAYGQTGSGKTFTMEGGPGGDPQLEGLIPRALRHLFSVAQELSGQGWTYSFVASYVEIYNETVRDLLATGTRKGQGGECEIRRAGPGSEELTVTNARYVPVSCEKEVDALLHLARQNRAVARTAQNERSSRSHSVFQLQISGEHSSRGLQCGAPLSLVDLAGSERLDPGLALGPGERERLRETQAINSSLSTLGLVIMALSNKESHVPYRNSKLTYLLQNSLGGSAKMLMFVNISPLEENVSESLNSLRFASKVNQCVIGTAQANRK

Structure (SMILES) | IC50
Cc1nc(-c2ccc3ccnc(NC[C@@H](O)C(=O)Nc4nc(C)c(C(C)(C)C)s4)c3c2)no1 [Example 190, (R)-N-(5-(tert-butyl)-4-methylthiazol-2-yl)-2-hydroxy-3-((7-(5-methyl-1,2,4-oxadiazol-3-yl)isoquinolin-1-yl)amino)propanamide] | 0.726 µM
Cc1nc(-c2ccc3ccnc(NC[C@@H](O)C(=O)Nc4nc(C)c(CC(C)C)s4)c3c2)no1 [Example 191, (R)-2-hydroxy-N-(5-isobutyl-4-methylthiazol-2-yl)-3-((7-(5-methyl-1,2,4-oxadiazol-3-yl)isoquinolin-1-yl)amino)propenamide] | 0.284 µM
Cc1nc(-c2ccc3ccnc(NC[C@@H](O)C(=O)Nc4nc(C)c(C5(C(F)(F)F)CC5)s4)c3c2)no1 [Example 192, (R)-2-hydroxy-3-((7-(5-methyl-1,2,4-oxadiazol-3-yl)isoquinolin-1-yl)amino)-N-(4-methyl-5-(1-(trifluoromethyl)cyclopropyl)thiazol-2-yl)propanamide] | 0.461 µM
Cc1nc(-c2cccc(C(=O)N[C@@H](CC#N)CC(=O)Nc3nc(C)c(C(=O)OC(C)(C)C)s3)c2)no1 [Example 193, tert-Butyl 2-[(3S)-4-cyano-3-{[3-(5-methyl-1,2,4-oxadiazol-3-yl)phenyl]form, amido}-butanamido]-4-methyl-1,3-thiazole-5-carboxylate] | 0.005 µM
Cc1nc(-c2cccc(C(=O)N[C@H](CC#N)CC(=O)Nc3nc(C)c(C(=O)OC(C)(C)C)s3)c2)no1 [Example 194, tert-Butyl 2-[(3R)-4-cyano-3-{[3-(5-methyl-1,2,4-oxadiazol-3-yl)phenyl]form-amido}butanamido]-4-methyl-1,3-thiazole-5-carboxylate] | 0.096 µM
Cc1nc(-c2cccc(C(=O)N[C@@H](CC#N)CC(=O)Nc3nc(C)c(C(=O)OC(C)C)s3)c2)no1 [Example 195, Propan-2-yl 2-[(3S)-4-cyano-3-{[3-(5-methyl-1,2,4-oxadiazol-3-yl)phenyl]form-amido}butanamido]-4-methyl-1,3-thiazole-5-carboxylate] | 0.012 µM
Cc1nc(-c2cccc(C(=O)N[C@H](CC#N)CC(=O)Nc3nc(C)c(C(=O)OC(C)C)s3)c2)no1 [Example 196, Propan-2-yl 2-[(3R)-4-cyano-3-{[3-(5-methyl-1,2,4-oxadiazol-3-yl)phenyl]form-amido}butanamido]-4-methyl-1,3-thiazole-5-carboxylate] | 0.167 µM
COC(=O)c1sc(NC(=O)C[C@H](CC#N)NC(=O)c2cccc(-c3noc(C)n3)c2)nc1C [Example 197, Methyl 2-[(3S)-4-cyano-3-{[3-(5-methyl-1,2,4-oxadiazol-3-yl)phenyl]formamido}, butanamido]-4-methyl-1,3-thiazole-5-carboxylate] | 0.135 µM
COC(=O)c1sc(NC(=O)C[C@@H](CC#N)NC(=O)c2cccc(-c3noc(C)n3)c2)nc1C [Example 198] | 0.181 µM
Cc1nc(-c2cccc(C(=O)N[C@@H](CC#N)CC(=O)N(C)c3nc(C)c(C(=O)OC(C)C)s3)c2)no1 [Example 199, Propan-2-yl 2-[(3S)-4-cyano-N-methyl-3-{[3-(5-methyl-1,2,4-oxadiazol-3-yl)phenyl]-formamido}butanamido]-4-methyl-1,3-thiazole-5-carboxylate] | 0.01 µM
Cc1nc(-c2cccc(C(=O)N[C@H](CC#N)CC(=O)N(C)c3nc(C)c(C(=O)OC(C)C)s3)c2)no1 [Example 200, Propan-2-yl 2-[(3R)-4-cyano-N-methyl-3-{[3-(5-methyl-1,2,4-oxadiazol-3-yl)phenyl]-formamido}butanamido]-4-methyl-1,3-thiazole-5-carboxylate] | 0.295 µM
Cc1nc(NC(=O)C[C@H](CC#N)NC(=O)c2cccc(-c3cnn(C)c3)c2)sc1C(=O)OC(C)(C)C [Example 201] | 0.41 µM
Cc1nc(NC(=O)C[C@@H](CC#N)NC(=O)c2cccc(-c3cnn(C)c3)c2)sc1C(=O)OC(C)(C)C [Example 202] | 8.85 µM
Cc1nc(NC(=O)C[C@H](CC#N)NC(=O)c2cccc(-c3cnn(C)c3)c2)sc1C(=O)OC(C)C [Example 203] | 1.1 µM
Cc1nc(NC(=O)C[C@@H](CC#N)NC(=O)c2cccc(-c3cnn(C)c3)c2)sc1C(=O)OC(C)C [Example 204] | 5.7 µM

Further lines, results first:

IC50 | Structure (SMILES)
4.4 µM | Cc1nc(N(C)C(=O)C[C@H](CC#N)NC(=O)c2cccc(-c3cnn(C)c3)c2)sc1C(=O)OC(C)C [Example 205]
9.3 µM | Cc1nc(N(C)C(=O)C[C@@H](CC#N)NC(=O)c2cccc(-c3cnn(C)c3)c2)sc1C(=O)OC(C)C [Example 206]
0.59 µM | Cc1nc(NC(=O)C[C@H](CC#N)NC(=O)c2cccc(C#N)c2)sc1C(=O)OC(C)C [Example 207, Propan-2-yl 2-[(3S)-4-cyano-3-[(3-cyanophenyl)formamido]butan-amido]-4-methyl-1,3-thiazole-5-carboxylate]
0.079 µM | Cc1nc(NC(=O)C[C@H](CC#N)Nc2nccc3ccc(C#N)cc23)sc1C(=O)OC(C)C [Example 208, Propan-2-yl 2-[(3S)-4-cyano-3-[(7-cyanoisoquinolin-1-yl)amino]butan-amido]-4-methyl-1,3-thiazole-5-carboxylate]
4 µM | Cc1nc(NC(=O)C[C@@H](CC#N)Nc2nccc3ccc(C#N)cc23)sc1C(=O)OC(C)C [Example 209, Propan-2-yl 2-[(3R)-4-cyano-3-[(7-cyanoisoquinolin-1-yl)amino]butan-amido]-4-methyl-1,3-thiazole-5-carboxylate]
0.7 µM | Cc1nc(NC(=O)C[C@H](CC#N)Nc2nccc3ccc(-c4cnn(C)c4)cc23)sc1C(=O)OC(C)C [Example 210, Propan-2-yl 2-[(3S)-4-cyano-3-{[7-(1-methyl-1 H-pyrazol-4-yl)isoquinolin-1-yl]amino}butanamido]-4-methyl-1,3-thiazole-5-carboxylate]
1.3 µM | Cc1nc(NC(=O)C[C@H](CC#N)NC(=O)c2cccc(-c3cnn(C)c3)n2)sc1C(=O)OC(C)(C)C [Example 211, tert-Butyl 2-[(3S)-4-cyano-3-{[6-(1-methyl-1 H-pyrazol-4-yl)pyridin-2-yl]formamido}butanamido]-4-methyl-1,3-thiazole-5-carboxylate]
3.35 µM | Cc1nc(NC(=O)C[C@@H](CC#N)NC(=O)c2cccc(-c3cnn(C)c3)n2)sc1C(=O)OC(C)(C)C [Example 212, tert-Butyl 2-[(3R)-4-cyano-3-{[6-(1-methyl-1 H-pyrazol-4-yl)pyridin-2-yl]formamido}butanamido]-4-methyl-1,3-thiazole-5-carboxylate]
1.7 µM | Cc1nc(NC(=O)C[C@H](CC#N)NC(=O)c2cccc(-c3cnn(C)c3)n2)sc1C(=O)OC(C)C [Example 213, Propan-2-yl 2-[(3S)-4-cyano-3-{[6-(1-methyl-1 H-pyrazol-4-yl)pyridin-2-yl]formamido}butanamido]-4-methyl-1,3-thiazole-5-carboxylate]
2.4 µM | Cc1nc(NC(=O)C[C@@H](CC#N)NC(=O)c2cccc(-c3cnn(C)c3)n2)sc1C(=O)OC(C)C [Example 214]
0.084 µM | CCOC(=O)c1sc(NC(=O)CC(CC)NC(=O)c2cccc(-c3noc(C)n3)c2)nc1C (stereo not shown) [Example 215]
1.7 µM | COC(=O)c1sc(NC(=O)C[C@H](CC(=O)O)NC(=O)c2cccc(-c3noc(C)n3)c2)nc1C [Example 216, (3R)-4-{[5-(methoxycarbonyl)-4-methyl-1,3-thiazol-2-yl]carbamoyl}-3-{[3-(5-methyl-1,2,4-oxadiazol-3-yl)phenyl]formamido}butanoic acid]
7.3 µM | COC(=O)c1sc(N(C)C(=O)C[C@@H](CC(=O)O)NC(=O)c2cccc(-c3noc(C)n3)c2)nc1C [Example 217]
0.041 µM | CCN(c1nc(C)c(C(=O)OC(C)(C)C)s1)C(=O)[C@H]1C[C@@H](Nc2nccc3ccc(-c4noc(C)n4)cc23)C1 [Example 218, tert-Butyl 2-((1s,3s)-N-ethyl-3-((7-(5-methyl-1,2,4-oxadiazol-3-yl)isoquinolin-1-yl)amino)cyclobutanecarboxamido)-4-methylthiazole-5-carboxylate formate]
0.089 µM | CCOC(=O)c1sc(N(C)C(=O)CCNC(=O)c2cccc(-c3noc(C)n3)c2)nc1C [Example 219, Ethyl 4-methyl-2-(N-methyl-3-(3-(5-methyl-1,2,4-oxadiazol-3-yl)benzamido)propanamido)thiazole-5-carboxylate]
0.122 µM | CCCOC(=O)c1sc(C(=O)N[C@H]2C[C@@H](Nc3nccc4ccc(-c5noc(C)n5)cc34)C2)nc1C [Example 220, Propyl 4-methyl-2-(((1s,3s)-3-((7-(5-methyl-1,2,4-oxadiazol-3-yl)isoquinolin-1-yl)amino)cyclobutyl)carbamoyl)thiazole-5-carboxylate]
0.133 µM | Cc1nc(-c2ccc3ccnc(N[C@H]4C[C@@](O)(C(=O)Nc5nc(C)c(C(C)(C)C)s5)C4)c3c2)no1 [Example 221, (1 r,3r)-N-(5-(tert-butyl)-4-methylthiazol-2-yl)-1-hydroxy-3-((7-(5-methyl-1,2,4-oxadiazol-3-yl)isoquinolin-1-yl)amino)cyclobutane-1-carboxamide]
0.01 µM | Cc1nc(-c2ccc3ccnc(N[C@H]4C[C@@](F)(C(=O)Nc5nc(C)c(C(=O)OC(C)(C)C)s5)C4)c3c2)no1 [Example 222, tert-butyl 2-((1 r,3r)-1-fluoro-3-((7-(5-methyl-1,2,4-oxadiazol-3-yl)isoquinolin-1-yl)amino)cyclobutane-1-carboxamido)-4-methylthiazole-5-carboxylate]
0.219 µM | Cc1nc(-c2ccc3ccnc(N[C@H]4C[C@](F)(C(=O)Nc5nc(C)c(C(=O)OC(C)(C)C)s5)C4)c3c2)no1 [Example 223, tert-Butyl 2-((1s,3s)-1-fluoro-3-((7-(5-methyl-1,2,4-oxadiazol-3-yl)isoquinolin-1-yl)amino)cyclobutane-1-carboxamido)-4-methylthiazole-5-carboxylate]

Source: patent publication US20250084074A1, “SUBSTITUTED HETEROCYCLES AS HSET INHIBITORS” (MERCK PATENT GMBH, priority 2022, published 2025)
